Organism: Rattus norvegicus
Test: DrugMatrix - Regimen: Daily Repeat
Type: toxicity, organism-based, Sprague-Dawley
Set-up: regimen Daily Repeat, gender Male, age 6-8 weeks
Settings: in vivo, po, route oral GAVAGE, vehicle .5 % CMC; for ABSOLUTE BASOPHIL / ABSOLUTE EOSINOPHIL / ABSOLUTE LYMPHOCYTE / ABSOLUTE MONOCYTE / ABSOLUTE SEGMENTED NEUTROPHIL / BASOPHIL / EOSINOPHIL / ERYTHROCYTE COUNT / HEMATOCRIT / HEMOGLOBIN / LEUKOCYTE COUNT / LYMPHOCYTE / MEAN CORPUSCULAR HEMOGLOBIN / MEAN CORPUSCULAR HEMOGLOBIN CONCENTRATION / MONOCYTE / NEUTROPHIL / NUCLEATED RED BLOOD CELLS / PLATELET COUNT: tissue Blood; for ALANINE AMINOTRANSFERASE / ALBUMIN / ALKALINE PHOSPHATASE / ASPARTATE AMINOTRANSFERASE / BLOOD UREA NITROGEN / CARBON DIOXIDE / CHLORIDE / CHOLESTEROL / CREATINE PHOSPHOKINASE / CREATININE / GLUCOSE / LACTATE DEHYDROGENASE / LIPASE / PHOSPHORUS / POTASSIUM / SODIUM / TOTAL BILIRUBIN / TOTAL PROTEIN / URIC ACID: tissue Plasma
[1] = 0 mg/kg, 72 h, dose level Control, time 3 day
[2] = 0 mg/kg, 120 h, dose level Control, time 5 day
[3] = 10 mg/kg, 72 h, dose level Low, time 3 day

O=C1C(CC[S+]([O-])c2ccccc2)C(=O)N(c2ccccc2)N1c1ccccc1 (stereo not given) [SULFINPYRAZONE]
ABSOLUTE BASOPHIL [1]: 0 CELLS/uL | ABSOLUTE EOSINOPHIL [1]: 171.33 CELLS/uL | ABSOLUTE LYMPHOCYTE [1]: 13776.5 CELLS/uL | ABSOLUTE MONOCYTE [1]: 180.83 CELLS/uL | ABSOLUTE SEGMENTED NEUTROPHIL [1]: 1121.33 CELLS/uL | BASOPHIL [1]: 0% | EOSINOPHIL [1]: 1% | ERYTHROCYTE COUNT [1]: 5.56 x10E6/uL | HEMATOCRIT [1]: 34.75% | HEMOGLOBIN [1]: 13.68 G/DL | LEUKOCYTE COUNT [1]: 15.25 x10E3/uL | LYMPHOCYTE [1]: 90.17% | MEAN CORPUSCULAR HEMOGLOBIN [1]: 24.6 pg | MEAN CORPUSCULAR HEMOGLOBIN CONCENTRATION [1]: 39.4 G/DL | MONOCYTE [1]: 1.17% | NEUTROPHIL [1]: 7.67% | NUCLEATED RED BLOOD CELLS [1]: 0 /100WBC | PLATELET COUNT [1]: 1342 x10E3/uL | ALANINE AMINOTRANSFERASE [1]: 49.67 u/L | ALBUMIN [1]: 4.15 G/DL | ALKALINE PHOSPHATASE [1]: 346.83 u/L | ASPARTATE AMINOTRANSFERASE [1]: 108.17 u/L | BLOOD UREA NITROGEN [1]: 17.33 mg/dL | CARBON DIOXIDE [1]: 25 mmol/L | CHLORIDE [1]: 100.83 MEQ/L | CHOLESTEROL [1]: 66.83 mg/dL | CREATINE PHOSPHOKINASE [1]: 788 u/L | CREATININE [1]: 0.18 mg/dL | GLUCOSE [1]: 151.67 mg/dL | LACTATE DEHYDROGENASE [1]: 982.5 u/L | LIPASE [1]: 10.33 u/L | PHOSPHORUS [1]: 11.23 mg/dL | POTASSIUM [1]: 6.37 MEQ/L | SODIUM [1]: 141.02 MEQ/L | TOTAL BILIRUBIN [1]: 0.18 mg/dL | TOTAL PROTEIN [1]: 5.9 G/DL | URIC ACID [1]: 1.8 mg/dL | ABSOLUTE BASOPHIL [2]: 0 CELLS/uL | ABSOLUTE EOSINOPHIL [2]: 69 CELLS/uL | ABSOLUTE LYMPHOCYTE [2]: 13632.83 CELLS/uL | ABSOLUTE MONOCYTE [2]: 139.83 CELLS/uL | ABSOLUTE SEGMENTED NEUTROPHIL [2]: 1225 CELLS/uL | BASOPHIL [2]: 0% | EOSINOPHIL [2]: 0.33% | ERYTHROCYTE COUNT [2]: 5.52 x10E6/uL | HEMATOCRIT [2]: 33.98% | HEMOGLOBIN [2]: 13.22 G/DL | LEUKOCYTE COUNT [2]: 15.07 x10E3/uL | LYMPHOCYTE [2]: 90.83% | MEAN CORPUSCULAR HEMOGLOBIN [2]: 23.95 pg | MEAN CORPUSCULAR HEMOGLOBIN CONCENTRATION [2]: 38.9 G/DL | MONOCYTE [2]: 0.83% | NEUTROPHIL [2]: 8% | NUCLEATED RED BLOOD CELLS [2]: 0 /100WBC | PLATELET COUNT [2]: 1196 x10E3/uL | ALANINE AMINOTRANSFERASE [2]: 49.17 u/L | ALBUMIN [2]: 4.2 G/DL | ALKALINE PHOSPHATASE [2]: 352.33 u/L | ASPARTATE AMINOTRANSFERASE [2]: 89.67 u/L | BLOOD UREA NITROGEN [2]: 18 mg/dL | CARBON DIOXIDE [2]: 27.67 mmol/L | CHLORIDE [2]: 101 MEQ/L | CHOLESTEROL [2]: 72.83 mg/dL | CREATINE PHOSPHOKINASE [2]: 417.5 u/L | CREATININE [2]: 0.18 mg/dL | GLUCOSE [2]: 150.5 mg/dL | LACTATE DEHYDROGENASE [2]: 517.33 u/L | LIPASE [2]: 9 u/L | PHOSPHORUS [2]: 11.87 mg/dL | POTASSIUM [2]: 6.57 MEQ/L | SODIUM [2]: 143.62 MEQ/L | TOTAL BILIRUBIN [2]: 0.2 mg/dL | TOTAL PROTEIN [2]: 6.08 G/DL | URIC ACID [2]: 1.45 mg/dL | ABSOLUTE BASOPHIL [3]: 0 CELLS/uL | ABSOLUTE EOSINOPHIL [3]: 153.67 CELLS/uL | ABSOLUTE LYMPHOCYTE [3]: 13327.33 CELLS/uL | ABSOLUTE MONOCYTE [3]: 157.33 CELLS/uL | ABSOLUTE SEGMENTED NEUTROPHIL [3]: 995 CELLS/uL | BASOPHIL [3]: 0% | EOSINOPHIL [3]: 1% | ERYTHROCYTE COUNT [3]: 5.31 x10E6/uL | HEMATOCRIT [3]: 34.03% | HEMOGLOBIN [3]: 13.67 G/DL | LEUKOCYTE COUNT [3]: 14.63 x10E3/uL | LYMPHOCYTE [3]: 91% | MEAN CORPUSCULAR HEMOGLOBIN [3]: 25.73 pg | MEAN CORPUSCULAR HEMOGLOBIN CONCENTRATION [3]: 40.17 G/DL | MONOCYTE [3]: 1% | NEUTROPHIL [3]: 7% | NUCLEATED RED BLOOD CELLS [3]: 0 /100WBC | PLATELET COUNT [3]: 1352.33 x10E3/uL | ALANINE AMINOTRANSFERASE [3]: 52.33 u/L | ALBUMIN [3]: 4.23 G/DL | ALKALINE PHOSPHATASE [3]: 353.33 u/L | ASPARTATE AMINOTRANSFERASE [3]: 105.67 u/L | BLOOD UREA NITROGEN [3]: 15.33 mg/dL | CARBON DIOXIDE [3]: 25.67 mmol/L | CHLORIDE [3]: 100.33 MEQ/L | CHOLESTEROL [3]: 80.33 mg/dL | CREATINE PHOSPHOKINASE [3]: 490.67 u/L | CREATININE [3]: 0.21 mg/dL | GLUCOSE [3]: 150.33 mg/dL | LACTATE DEHYDROGENASE [3]: 722 u/L | LIPASE [3]: 10.33 u/L | PHOSPHORUS [3]: 12.1 mg/dL | POTASSIUM [3]: 6.22 MEQ/L | SODIUM [3]: 143.2 MEQ/L | TOTAL BILIRUBIN [3]: 0.2 mg/dL | TOTAL PROTEIN [3]: 6.03 G/DL
